Drawing on US12655142B2 (Merck Patent GmbH, priority 2019, dated 2026), this text covers IC50 and efflux ratio for 16 molecules.

pIC50: −log10 of the molar value. Where only a bound is given, the exact number is not on record here.

The target in one data set is T1, c-Kit(V654A) (Homo sapiens, UniProt P10721, V654A).
T1 construct: recombinant human c-Kit, amino acids 544-end containing the V654A mutation; GST (N)
Nature of the data set: c-Kit(V654A) assay (33P-ATP filter binding kinase assay). It is filed as biochemical. The following applies: recombinant human c-Kit aa 544-end V654A, ATP 200 μM. In a few lines:
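Radiometric filter-binding read-out: substrate 33P incorporation counted by scintillation after P30 filtermat washes in 75 mM phosphoric acid and methanol. Enzyme: N-GST recombinant human c-Kit aa 544-end carrying V654A.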

For data set [1], the target named is T2, GIST430/654 cell line expressing mutated constitutively active cKIT receptor tyrosine kinase (Δ560-576 deletion and V654A point mutation) (Homo sapiens, UniProt P10721, DEL560-576/V654A).
T2 construct: endogenous in cells; host or cells: GIST430/654 cells
Put plainly: Cellular cKIT autophosphorylation (phospho-Y307-cKIT, Luminex bead assay) in GIST430/654 cells. It is filed as cell-based. The settings on record: compounds 45 min, read-out: GIST 430/654 IC50. In a few lines: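 Phospho-Y307 cKIT in lysates was measured on a Luminex bead assay, with total-cKIT capture overnight at 4 °C and phosphospecific plus PE secondary detection. Cells had 45 min exposure to a compound dilution series the day after plating: GIST430 (Δ560-576) or GIST430/654 (Δ560-576/V654A, grown with 100 nM imatinib). IC50 values are relative to 0.3% DMSO-treated cells.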

Data set [2] is described as follows: Determination of Efflux-Ratio (ER) in Caco-2 cells. The following applies: human, Caco-2, pH 7.4. (In general: Caco-2 cells form a polarised layer with tight junctions and transporters.)

T1 sequence (P10721 544-976 V654A): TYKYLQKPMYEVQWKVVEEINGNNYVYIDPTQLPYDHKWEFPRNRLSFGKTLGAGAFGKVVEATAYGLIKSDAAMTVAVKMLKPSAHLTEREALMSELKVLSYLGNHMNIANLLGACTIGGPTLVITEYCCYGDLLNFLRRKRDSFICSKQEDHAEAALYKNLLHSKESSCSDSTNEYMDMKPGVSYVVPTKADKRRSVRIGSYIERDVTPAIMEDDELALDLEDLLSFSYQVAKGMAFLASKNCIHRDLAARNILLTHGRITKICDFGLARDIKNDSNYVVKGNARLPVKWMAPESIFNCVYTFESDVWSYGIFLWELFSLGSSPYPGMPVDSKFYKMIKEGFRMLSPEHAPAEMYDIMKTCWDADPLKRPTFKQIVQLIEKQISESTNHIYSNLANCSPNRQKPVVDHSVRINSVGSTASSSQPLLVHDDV
T2 sequence (P10721 with tags, fused parts or gaps DEL560-576/V654A): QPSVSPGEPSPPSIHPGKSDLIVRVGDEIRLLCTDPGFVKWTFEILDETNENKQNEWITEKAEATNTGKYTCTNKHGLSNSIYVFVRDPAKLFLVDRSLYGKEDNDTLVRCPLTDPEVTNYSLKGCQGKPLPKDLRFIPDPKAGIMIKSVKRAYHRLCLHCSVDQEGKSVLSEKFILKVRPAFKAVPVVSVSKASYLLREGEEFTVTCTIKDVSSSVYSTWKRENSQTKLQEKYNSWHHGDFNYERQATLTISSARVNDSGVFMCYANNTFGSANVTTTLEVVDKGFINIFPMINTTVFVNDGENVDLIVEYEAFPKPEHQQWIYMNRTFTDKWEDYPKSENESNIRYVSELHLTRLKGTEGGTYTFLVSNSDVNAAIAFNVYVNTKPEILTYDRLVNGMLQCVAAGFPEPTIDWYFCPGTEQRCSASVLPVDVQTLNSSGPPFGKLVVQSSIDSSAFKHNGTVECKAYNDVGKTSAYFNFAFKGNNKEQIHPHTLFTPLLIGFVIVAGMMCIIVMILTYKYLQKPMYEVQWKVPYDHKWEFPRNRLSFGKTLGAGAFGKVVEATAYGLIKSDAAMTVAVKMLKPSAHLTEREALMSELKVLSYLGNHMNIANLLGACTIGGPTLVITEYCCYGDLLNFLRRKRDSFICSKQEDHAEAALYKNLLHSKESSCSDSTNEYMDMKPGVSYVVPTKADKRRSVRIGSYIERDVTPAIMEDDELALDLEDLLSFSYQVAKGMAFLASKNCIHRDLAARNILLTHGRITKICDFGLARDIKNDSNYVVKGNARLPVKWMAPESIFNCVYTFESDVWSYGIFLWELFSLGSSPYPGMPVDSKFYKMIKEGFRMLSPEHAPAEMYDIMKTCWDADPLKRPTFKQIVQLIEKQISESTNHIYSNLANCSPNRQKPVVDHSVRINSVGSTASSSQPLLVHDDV

With `Cn1cc(-c2ccc(CNc3cc(-c4cnc5cc(OCCN6Cc7ccncc7C6)ccn45)ncn3)cc2)cn1` [A195, (6-{7-[2-(1,3-dihydro-pyrrolo[3,4-c]pyridin-2-yl)-ethoxy]-imidazo[1,2-a]pyridin-3-yl}-pyrimidin-4-yl)-[4-(1-methyl-1H-pyrazol-4-yl)-benzyl]-amine], the pIC50 was 8.01 on c-Kit(V654A) and 7.14 in data set [1]. For the same molecule, in data set [2], the efflux ratio (in general, the permeability from basolateral to apical divided by that in the opposite direction, in the common usage) at 2 h, 1 μM is below 15.
The matching figures for `Cn1cc(-c2ccc(CNc3cc(-c4cnc5cc(OCCN6CCC(C)(F)CC6)ccn45)ncn3)cc2)cn1` [A196, (6-{7-[2-(4-fluoro-4-methyl-piperidin-1-yl)-ethoxy]-imidazo[1,2-a]pyridin-3-yl}-pyrimidin-4-yl)-[4-(1-methyl-1H-pyrazol-4-yl)-benzyl]-amine]: 7.85, 6.85 and below 15.
The matching figures for `Cn1cc(-c2ccc(CNc3cc(-c4cnc5cc(OCCN6CCN(C7CC7)CC6)ccn45)ncn3)cc2)cn1` [A197, (6-{7-[2-(4-cyclopropyl-piperazin-1-yl)-ethoxy]-imidazo[1,2-a]pyridin-3-yl}-pyrimidin-4-yl)-[4-(1-methyl-1H-pyrazol-4-yl)-benzyl]-amine]: 7.92, 6.82 and below 15.
The matching figures for `CN1CC2CCC(C1)N2CCOc1ccn2c(-c3cc(NCc4ccc(-c5cnn(C)c5)cc4)ncn3)cnc2c1` [A198, (6-{7-[2-(3-methyl-3,8-diaza-bicyclo[3.2.1]oct-8-yl)-ethoxy]-imidazo[1,2-a]pyridin-3-yl}-pyrimidin-4-yl)-[4-(1-methyl-1H-pyrazol-4-yl)-benzyl]-amine]: 8.00, 6.92 and 15 to 50.
Take `Cn1cc(-c2ccc(CNc3cc(-c4cnc5cc(OCCN6CC7CC6C[S+]7[O-])ccn45)ncn3)cc2)cn1` (stereo not drawn) [A199, [4-(1-methyl-1H-pyrazol-4-yl)-benzyl]-(6-{7-[2-(2-oxo-2|4-thia-5-aza-bicyclo[2.2.1]hept-5-yl)-ethoxy]-imidazo[1,2-a]pyridin-3-yl}-pyrimidin-4-yl)-amine]: the results for the pIC50 (on c-Kit(V654A); in data set [1]) were 8.01 and 7.00, respectively. Further, in data set [2], the efflux ratio at 2 h, 1 μM was above 50.
Consider `Cn1cc(-c2ccc(CNc3cc(-c4cnc5cc(OCCN6CCOCC(F)(F)C6)ccn45)ncn3)cc2)cn1` [A200, (6-{7-[2-(6,6-difluoro-[1,4]oxazepan-4-yl)-ethoxy]-imidazo[1,2-a]pyridin-3-yl}-pyrimidin-4-yl)-[4-(1-methyl-1H-pyrazol-4-yl)-benzyl]-amine], for which the pIC50 at c-Kit(V654A) is 7.57; in data set [1], 6.72. In addition, the efflux ratio at 2 h, 1 μM in data set [2] is below 15.
As for `Cn1cc(-c2ccc(CNc3cc(-c4cnc5cc(OCCN6CCN7CCOCC7C6)ccn45)ncn3)cc2)cn1` (stereo not drawn) [A201, (6-{7-[2-(hexahydro-pyrazino[2,1-c][1,4]oxazin-8-yl)-ethoxy]-imidazo[1,2-a]pyridin-3-yl}-pyrimidin-4-yl)-[4-(1-methyl-1H-pyrazol-4-yl)-benzyl]-amine], the pIC50 is 7.89 on c-Kit(V654A) and 7.00 in data set [1]. For the same molecule, the efflux ratio at 2 h, 1 μM in data set [2] was below 15.
The matching figures for `Cn1cc(-c2ccc(CNc3cc(-c4cnc5cc(OCCN6CCC(F)(F)CC6)ccn45)ncn3)cc2)cn1` [A202, (6-{7-[2-(4,4-difluoro-piperidin-1-yl)-ethoxy]-imidazo[1,2-a]pyridin-3-yl}-pyrimidin-4-yl)-[4-(1-methyl-1H-pyrazol-4-yl)-benzyl]-amine]: 7.77, 6.70 and below 15.
The matching figures for `Cn1cc(-c2ccc(CNc3cc(-c4cnc5cc(OCCN6CCn7cnnc7C6)ccn45)ncn3)cc2)cn1` [A203, (6-{7-[2-(5,6-dihydro-8H-[1,2,4]triazolo[4,3-a]pyrazin-7-yl)-ethoxy]-imidazo[1,2-a]pyridin-3-yl}-pyrimidin-4-yl)-[4-(1-methyl-1H-pyrazol-4-yl)-benzyl]-amine]: 8.01, 6.38 and above 50.
The matching figures for `Cc1nc2n(n1)CCN(CCOc1ccn3c(-c4cc(NCc5ccc(-c6cnn(C)c6)cc5)ncn4)cnc3c1)C2` [A204, (6-{7-[2-(2-methyl-5,6-dihydro-8H-[1,2,4]triazolo[1,5-a]pyrazin-7-yl)-ethoxy]-imidazo[1,2-a]pyridin-3-yl}-pyrimidin-4-yl)-[4-(1-methyl-1H-pyrazol-4-yl)-benzyl]-amine]: 7.92, 6.77 and 15 to 50.
As for `CN(CC#N)CCOc1ccn2c(-c3cc(NCc4ccc(-c5cnn(C)c5)cc4)ncn3)cnc2c1` [A205, {methyl-[2-(3-{6-[4-(1-methyl-1H-pyrazol-4-yl)-benzylamino]-pyrimidin-4-yl}-imidazo[1,2-a]pyridin-7-yloxy)-ethyl]-amino}-acetonitrile], the results for the pIC50 (on c-Kit(V654A); in data set [1]) were 8.00 and 6.96, respectively. In addition, the efflux ratio at 2 h, 1 μM in data set [2] was below 15.
The corresponding values for `Cn1cc(-c2ccc(CNc3cc(-c4cnc5cc(OCCN6CC(C)(C#N)C6)ccn45)ncn3)cc2)cn1` [A206] are 8.15, 7.00 and below 15.
The matching figures for `CN(CCOc1ccn2c(-c3cc(NCc4ccc(-c5cnn(C)c5)cc4)ncn3)cnc2c1)CC(F)(F)F` [A208, [4-(1-methyl-1H-pyrazol-4-yl)-benzyl]-[6-(7-{2-[methyl-(2,2,2-trifluoro-ethyl)-amino]-ethoxy}-imidazo[1,2-a]pyridin-3-yl)-pyrimidin-4-yl]-amine]: 7.42, 6.64 and below 15.
The matching figures for `Cn1cc(-c2ccc(CNc3cc(-c4cnc5cc(OCCN6CCO[C@@H]7COCC[C@@H]76)ccn45)ncn3)cc2)cn1` [A211, (6-{7-[(4aS,8aS)-2-(hexahydro-pyrano[3,4-b][1,4]oxazin-1-yl)-ethoxy]-imidazo[1,2-a]pyridin-3-yl}-pyrimidin-4-yl)-[4-(1-methyl-1H-pyrazol-4-yl)-benzyl]-amine]: 8.00, 7.07 and below 15.
On to `Cc1noc(C2CN(CCOc3ccn4c(-c5cc(NCc6ccc(-c7cnn(C)c7)cc6)ncn5)cnc4c3)C2)n1` [A213, [6-(7-{2-[3-(3-methyl-[1,2,4]oxadiazol-5-yl)-azetidin-1-yl]-ethoxy}-imidazo[1,2-a]pyridin-3-yl)-pyrimidin-4-yl]-[4-(1-methyl-1H-pyrazol-4-yl)-benzyl]-amine], for which the pIC50 is 7.80 on c-Kit(V654A) and 6.74 in data set [1]. The efflux ratio at 2 h, 1 μM in data set [2] is below 15.
The corresponding values for `Cn1cc(-c2ccc(CNc3cc(-c4cnc5cc(OCCN6CCOC(F)(F)C6)ccn45)ncn3)cc2)cn1` [A214, (6-{7-[2-(2,2-difluoro-morpholin-4-yl)-ethoxy]-imidazo[1,2-a]pyridin-3-yl}-pyrimidin-4-yl)-[4-(1-methyl-1H-pyrazol-4-yl)-benzyl]-amine] are 7.68, 6.74 and below 15.
